From paper PMC8754100, “Role of Hepatocyte- and Macrophage-Specific PPARγ in Hepatotoxicity Induced by Diethylhexyl Phthalate in Mice” (Environmental Health Perspectives, 2022) come the findings set out here.

The experiment concerns the target T1, PPARα (Homo sapiens, UniProt Q07869).
T1 construct: gene PPARA
T1 sequence (Q07869 1-468): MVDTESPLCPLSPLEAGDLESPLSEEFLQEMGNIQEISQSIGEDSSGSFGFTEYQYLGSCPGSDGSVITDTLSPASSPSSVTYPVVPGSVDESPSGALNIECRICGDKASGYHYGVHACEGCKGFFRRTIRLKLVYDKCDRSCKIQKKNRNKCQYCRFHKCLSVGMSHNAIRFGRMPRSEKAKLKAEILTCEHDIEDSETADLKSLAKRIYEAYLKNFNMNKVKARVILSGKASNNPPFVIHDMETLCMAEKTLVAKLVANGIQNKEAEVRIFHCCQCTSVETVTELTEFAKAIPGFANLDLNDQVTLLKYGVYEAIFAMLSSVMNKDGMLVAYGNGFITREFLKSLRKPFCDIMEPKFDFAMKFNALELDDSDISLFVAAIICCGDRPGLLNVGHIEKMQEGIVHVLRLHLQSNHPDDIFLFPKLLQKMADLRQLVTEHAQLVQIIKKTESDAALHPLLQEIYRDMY
Description: SPR (OpenSPR) with recombinant human PPARα immobilized by amine coupling. Format: binding.

For the compound `CCCCC(CC)COC(=O)c1ccccc1C(=O)O` (stereo not shown) [MEHP, mono(2-ethylhexyl) phthalate], the Kd came out at 627 µM.

Broadly, the Kd is a measure of binding affinity in units of concentration.
